# In US10821120B2, “Method for controlling neuroinflammation” (N.V. NUTRICIA, priority 2016, dated 2020):
# Tests used:
# [1] = test system: LPS-stimulated BV-2 cells; assay: Griess assay (nitric oxide release) from LPS-activated BV-2 microglia; format: cell-based, mouse; conditions: vitamin D 1 μg/ml, DHA 20 μM; for NO release as percentage of the NO released by cells stimulated only with LPS: Example 1, high non-toxic concentrations: vitamin A 1.75 μM, EPA 20 μM, 24 h pretreatment, then 24 h with LPS 50 ng/ml plus same nutrients, LPS control = 100%; for effect on LPS-induced NO release (in words): Example 1 concentrations: vitamin B6 29 μM, folic acid 24 μM, vitamin B12 0.2 μM, vitamin A 1.75 μM, versus LPS control
# Text: (§1) BV-2 cell cultures: BV-2 cells were obtained from IRCCS (Azienda Ospedaliera Universitaria San Martino—IST Istituto Nazionale per la Ricerca sul Cancro, Genova, Italy). BV-2 cell lines are immortalized cell lines derived from C57bl/6 mouse. These are considered to closely resemble the physiology of primary microglia cells and form a well-established model for investigation in vitro (Henn et al., ALTEX, 2009, 26, 83-94). Lipopolysaccharide (LPS), an endotoxin derived from the cell wall of gram negative bacteria, is the most widely used agent to activate immune cells. Cells were cultured in Dulbecco's Modified Eagle Medium (DMEM, Gibco) supplemented with 10% of heat-inactivated fetal bovine serum (Invitrogen), 10,000 units/ml penicillin (Gibco), 10,000 μg/ml streptomycin (Gibco) and 200 mM L-glutamine (Gibco) and maintained at 37° C. and 5% CO2. Twenty-four hours before the experiment, cells were plated on 96 well plates (Corning) at a cell density of approximately 20,000 cells/well and maintained in DMEM supplemented with 2% fetal bovine serum, 10,000 units/ml penicillin, 10,000 μg/ml streptomycin and 200 mM L-glutamine, for the duration of the experiment.
# (§2) Cell viability: Cell proliferation and viability were assessed with 2,3-bis(2-methoxy-4-nitro-5-sulfophenyl)-2H-tetrazolium-5-carboxanilide inner salt (XTT, Sigma) at a concentration of 1 mg/ml. Phenazine methosulfate (PMS, Sigma) at a concentration of 200 mg/ml was added as an electron coupling reagent. The XTT/PMS solution in sterile water (100 μl) was added to each well. After 2 h, the absorbance was measured at 450 nm (and 690 nm as a reference). The absorbance was corrected for the number of cells. The viability test was repeated for each experiment as a within plate control.
# Griess assay (nitric oxide release): Cells were treated for 24 h with different combinations of nutrients. This treatment was followed by exchanging the medium for fresh medium with LPS (50 ng/ml) combined with the same nutrients. After incubation for 24 h, media were collected for measurement of NO release. The stable product of NO released by the BV-2 cells is NO2^−. The concentration of NO2^− was measured with a Griess assay Kit (Promega) according to the manufacturer's instructions. Data were corrected for cell viability (the viability of untreated control cells represented 100% of viability). Data are represented as percentage of the NO released by cells stimulated only with LPS. To assess variability between the tests, data from the treatment with LPS alone were pooled and an average release between experiments was calculated for NO. For treatment with LPS alone, the NO release is represented as the percentage of the average release between experiments.
# (§3) Statistical analysis: All experiments were performed at least in triplicate. The data are presented as dots representing means and bars representing standard error mean (SEM). Due to the small sample size, non-parametric statistical tests were used. Data were analyzed with the Kruskal-Wallis H test and if the statistical significance was reached, Mann Whithey U test with Bonferroni-Holm post-hoc correction to allow multiple comparisons was performed. A difference was considered statistically significant when the probability (p) was <0.05.
# (§4) BV-2 cells were pretreated for 24 h with different nutrients: (I) vitamin A (1.75 μM); (II) vitamin D (1 μg/ml); (III) DHA (20 μM); (IV) EPA (20 μM); (V) vitamin B6 (29 μM, including 19 μM already present in the culture medium); (VI) folic acid (24 μM, including 9 μM already present in the culture medium); (VII) vitamin B12 (0.2 μM). This was followed by 24 h incubation with LPS (50 ng/ml) combined with the same nutrients. Media were collected for measurement of NO release with the Griess assay (FIG. 1A) and IL-6 release with ELISA (FIG. 1B). NO and IL-6 levels are presented as the percentage of the concentration produced by cells treated with LPS alone (LPS control, dashed line).
# [2] = test system: LPS-stimulated BV-2 cells; assay: ELISA (IL-6) release from LPS-activated BV-2 microglia; format: cell-based, mouse; conditions: vitamin D 1 μg/ml, DHA 20 μM; for IL-6 release as percentage of the IL-6 released by cells stimulated only with LPS: Example 1, high non-toxic concentrations: vitamin A 1.75 μM, EPA 20 μM, 24 h pretreatment, then 24 h with LPS 50 ng/ml plus same nutrients, LPS control = 100%; for effect on LPS-induced IL-6 release (in words): Example 1 concentrations: vitamin B6 29 μM, folic acid 24 μM, vitamin B12 0.2 μM, vitamin A 1.75 μM, versus LPS control
# Text: as §1, §2
# ELISA (IL-6): Cells were treated for 24 h with different combinations of nutrients. Subsequently, the medium was removed and cells were incubated for 24 h in fresh medium with LPS (50 ng/ml) combined with the same nutrients. Media were collected for measurement of IL-6 release. Collected samples were stored at −80° C. until further analysis. The cytokine levels were assessed using ELISA MAX™ Deluxe from Biolegend according to the manufacturer's protocol. Data were corrected for cell viability. Data are represented as percentage of the IL-6 released by cells stimulated only with LPS. To assess variability between the tests, data from the treatment with LPS alone were pooled and an average release between experiments was calculated for IL-6. For LPS alone treatment the IL-6 release is represented as the percentage of the average release between experiments.
# as §3
# as §4, with “line). All graphs represent the results from 4 independent experiments (mean±SEM).” for “line).”
Compound,NO release as percentage of the NO released by cells stimulated only with LPS [1],IL-6 release as percentage of the IL-6 released by cells stimulated only with LPS [2],effect on LPS-induced NO release (in words) [1],effect on LPS-induced IL-6 release (in words) [2]
"CC/C=C\C/C=C\C/C=C\C/C=C\C/C=C\C/C=C\CCC(=O)O [DHA, cis-4,7,10,13,16,19-docosahexaenoic acid]",68%,68%,–,–
"CC/C=C\C/C=C\C/C=C\C/C=C\C/C=C\CCCC(=O)O [EPA, cis-5,8,11,14,17-eicosapentaenoic acid]",80%,70%,–,–
N[C@@H](CS)C(=O)O [L-cysteine],–,–,did not cause any significant effect,did not cause any significant effects
N[C@@H](Cc1c[nH]c2ccccc12)C(=O)O [L-tryptophan],–,–,did not cause any significant effect,did not cause any significant effects
"Cc1ncc(CO)c(CO)c1O.Cl [Vitamin B6, vitamin B6]",–,–,did not cause any significant effect,did not cause any significant effects
"Nc1nc2ncc(CNc3ccc(C(=O)N[C@@H](CCC(=O)O)C(=O)O)cc3)nc2c(=O)[nH]1 [Vitamin B9, folic acid]",–,–,did not cause any significant effect,did not cause any significant effects
"C=C1CC[C@H](O)C/C1=C/C=C1\CCC[C@]2(C)[C@@H]([C@H](C)CCCC(C)C)CC[C@@H]12 [Vitamin D, vitamin D3]",43%,43%,–,–
vitamin A,39%,42%,–,–
vitamin B12,–,–,did not cause any significant effect,did not cause any significant effects
